Data as given in ChEMBL document CHEMBL1125951, “Synthesis and dopaminergic activity of the enantiomers of 6-methyl-4,5a,6,7,8-hexahydrothiazolo[4,5-f]quinolin-2-amine (PD 128483)” (Bioorg Med Chem Lett, 1991).

Legend:
Rattus norvegicus [1] = experiment: Compound was evaluated for reversal of the increase in rat striatum DOPA accumulation produced by the pretreatment with GBL (750 mg/Kg, ip) and NSD 1015 (100 mg/Kg, ip); type: functional
D(1A) dopamine receptor = D(1A) dopamine receptor (Rattus norvegicus, UniProt P18901); experiment: In vitro binding affinity to Dopamine receptor D1 in rat striatal membranes using D1 antagonist [3H]SCH-23390; type: cell membranes, Striatum, Membrane
Rattus norvegicus [2] = experiment: Compound was evaluated for inhibition of the spontaneous firing of substantia nigra DA neurons in anesthetized rats at 2.5 mg/Kg (ip); type: functional
D(2) dopamine receptor = D(2) dopamine receptor (Rattus norvegicus, UniProt P61169); experiment: In vitro binding affinity to Dopamine receptor D2 in rat striatal membranes using D2 antagonist [3H]spiperone; type: cell membranes, Striatum, Membrane
[3] = target: Dopamine receptors; D1 & D2 (Rattus norvegicus, UniProt P18901+P61169); experiment: In vitro binding affinity to Dopamine receptor D1/Dopamine receptor D2 in rat striatal membranes using [3H]N-propylnorapomorphine; type: cell membranes, Striatum, Membrane
Rattus norvegicus [4] = experiment: Compound was evaluated for reversal of the increase in rat striatum DOPA accumulation produced by the pretreatment with GBL (750 mg/kg, ip) and NSD 1015 (100 mg/Kg, ip); type: functional
Rattus norvegicus [5] = experiment: Compound (2.0 mg/kg ip.) was evaluated for reversal of the increase in rat striatum DOPA accumulation produced by the pretreatment with GBL (750 mg/Kg, ip) and NSD 1015 (2 mg/Kg, ip); type: functional
Rattus norvegicus [6] = experiment: Compound was evaluated for inhibition of the spontaneous firing of substantia nigra DA neurons in anesthetized rats at 0.25 mg/Kg (ip); type: functional

D(1A) dopamine receptor, sequence (P18901 whole entry): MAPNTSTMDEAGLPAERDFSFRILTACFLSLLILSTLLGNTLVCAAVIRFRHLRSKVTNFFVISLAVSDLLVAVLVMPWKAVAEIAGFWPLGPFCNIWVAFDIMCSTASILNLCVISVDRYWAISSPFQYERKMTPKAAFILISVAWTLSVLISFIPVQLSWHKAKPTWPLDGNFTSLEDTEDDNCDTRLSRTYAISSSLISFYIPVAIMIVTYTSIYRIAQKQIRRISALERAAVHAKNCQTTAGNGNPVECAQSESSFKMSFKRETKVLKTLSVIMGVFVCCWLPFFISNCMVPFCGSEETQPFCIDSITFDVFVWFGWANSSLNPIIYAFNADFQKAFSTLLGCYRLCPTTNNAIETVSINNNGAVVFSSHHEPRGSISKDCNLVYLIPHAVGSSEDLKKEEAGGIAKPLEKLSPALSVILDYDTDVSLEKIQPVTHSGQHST
D(2) dopamine receptor, sequence (P61169 whole entry): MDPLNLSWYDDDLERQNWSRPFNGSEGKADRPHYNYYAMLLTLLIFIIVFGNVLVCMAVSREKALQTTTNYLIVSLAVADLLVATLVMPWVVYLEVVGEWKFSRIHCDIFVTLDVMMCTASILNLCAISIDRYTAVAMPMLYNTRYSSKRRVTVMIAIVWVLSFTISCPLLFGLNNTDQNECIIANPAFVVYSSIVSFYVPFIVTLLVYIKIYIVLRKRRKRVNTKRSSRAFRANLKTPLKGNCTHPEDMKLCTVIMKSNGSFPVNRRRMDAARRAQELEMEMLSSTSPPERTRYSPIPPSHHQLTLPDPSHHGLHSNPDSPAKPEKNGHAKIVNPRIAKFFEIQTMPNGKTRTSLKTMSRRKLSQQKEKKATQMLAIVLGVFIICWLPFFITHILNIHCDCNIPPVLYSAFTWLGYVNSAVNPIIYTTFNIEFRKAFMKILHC

SMILES | ED50 (Rattus norvegicus [1]) [mg/kg] | IC50 (D(1A) dopamine receptor) [nM] | inhibition in vivo at 2.5 mg/kg (Rattus norvegicus [2]) [%] | IC50 (D(2) dopamine receptor) [nM] | IC50 [3] [nM] | ED50 (Rattus norvegicus [4]) [mg/kg] | Inhibition (Rattus norvegicus [5]) [%] | inhibition in vivo at 0.25 mg/kg (Rattus norvegicus [6]) [%]
CCCN1CCC=C2c3nc(N)sc3CC[C@H]21 | 4.8 | > 15000 | 91 |  |  |  |  | 
CN1CCC=C2c3nc(N)sc3CC[C@H]21 | 0.5 | > 20000 | 99 | 376 | 127 |  |  | 
CN1CCC=C2c3nc(N)sc3CC[C@@H]21 |  | > 20000 | 67 | 768 | 464 | > 10 |  | 
CN1CCc2cccc3c2[C@H]1Cc1ccc(O)c(O)c1-3 [APOMORPHINE] |  |  |  |  |  |  | 100 | 100
CCCN1CCC=C2c3nc(N)sc3CC[C@@H]21 | > 10 | > 15000 | 22 |  |  |  |  | 
